{"source": "patent US20040138145A1", "about": "“Application of intestinal biliary acid reuptake inhibitors for the prevention and treatment of alzheimer's disease” (Aventis Pharma S.A., priority 2002, published 2004)", "key": {"Aβ peptide": {"test_system": "Aβ peptide", "test": "Cerebral Aβ peptide levels (soluble and total brain fractions) in Tg53 transgenic mice, immunoelectrochemoluminescence assay", "type": "in vivo, mouse", "details": "for levels of total Aβ / levels of total Aβ reduced compared with control group: Test 3; for levels of total Aβ: control 108.1±8.5"}, "plasma cholesterol": {"test_system": "plasma cholesterol", "test": "Plasma cholesterol level in Tg53 transgenic mice after treatment in feed", "type": "in vivo, mouse", "method": "The compound A in powdered form was mixed at the dose of 0.01% (weight/weight) with standard feed in powdered form.\nTransgenic mice Tg53 (overexpressing the human APP transgene carrying the “Swedish” and “London” mutations, (2002 Wirths, et al. (2002). Brain Pathol. 12, 275-286), 8-10 week old females, were treated for 3 weeks. The mice were housed in an individual cage with drink being available ad libitum. Every day, 6 grams of powdered food (supplemented or otherwise with compound A) were distributed in each cage. Two groups of 11 to 12 animals (control regimen or regimen supplemented with compound A) were used. At the end of the treatment, a blood sample was collected and the plasma cholesterol level was determined using an automated device for biological analysis."}}}
{"compound": "CCCC[C@]1(CC)CS(=O)(=O)c2ccc(N(C)C)cc2[C@@H](c2cccc(NC(=O)CCCCNC[C@H](O)[C@@H](O)[C@H](O)[C@H](O)CO)c2)[C@H]1O", "note": "[compound A]", "values": [{"measurement": "decrease in the cerebral level of soluble Aβ peptide compared to control regimen group", "setting": "Aβ peptide; Test 1, Tg53 females 8-10 weeks old, 0.01% (w/w) in feed, 3 weeks, p=0.0103", "value": 18, "unit": "%"}, {"measurement": "cerebral levels of total peptide Aβ", "setting": "Aβ peptide; Test 2, female transgenic mice 15.5 weeks old at end of treatment, 0.01% in feed, n=8, control 364.2±40.9", "value": "196.3±17.8 ng/g of tissue"}, {"measurement": "reduction in the cerebral level of soluble Aβ peptide compared with control regime group", "setting": "Aβ peptide; Test 2, female transgenic mice 15.5 weeks old at end of treatment, 0.01% in feed, p=0.0001", "value": 40, "unit": "%"}, {"measurement": "cerebral levels of total peptide Aβ reduced compared with control regime group", "setting": "Aβ peptide; Test 2, female transgenic mice 15.5 weeks old at end of treatment, 0.01% in feed, p=0.0017", "value": 46, "unit": "%"}, {"measurement": "levels of total Aβ", "setting": "Aβ peptide; 0.0001% in feed, n=8", "value": "85.4±4.1 ng/g of tissue"}, {"measurement": "levels of total Aβ reduced compared with control group", "setting": "Aβ peptide; 0.0001% in feed, p=0.04", "value": 21, "unit": "%"}, {"measurement": "levels of total Aβ", "setting": "Aβ peptide; 0.001% in feed, n=10", "value": "86.5±5.9 ng/g of tissue"}, {"measurement": "levels of total Aβ reduced compared with control group", "setting": "Aβ peptide; 0.001% in feed, p=0.050", "value": 20, "unit": "%"}, {"measurement": "levels of total Aβ", "setting": "Aβ peptide; 0.01% in feed, n=10", "value": "90.5±6.9 ng/g of tissue"}, {"measurement": "levels of total Aβ reduced compared with control group", "setting": "Aβ peptide; 0.01% in feed, p=0.123, ns", "value": 16, "unit": "%"}, {"measurement": "plasma cholesterol level", "setting": "plasma cholesterol; Test 1, Tg53 females 8-10 weeks old, 0.01% (w/w) in feed, 3 weeks, n=11, control 0.72±0.023", "value": "0.62 ± 0.030", "unit": "g/L"}, {"measurement": "plasma cholesterol level reduced compared to control regimen group", "setting": "plasma cholesterol; Test 1, Tg53 females 8-10 weeks old, 0.01% (w/w) in feed, 3 weeks, p=0.0154", "value": 14, "unit": "%"}, {"measurement": "plasma cholesterol level", "setting": "plasma cholesterol; Test 2, female transgenic mice 15.5 weeks old at end of treatment, 0.01% in feed, n=8, control 0.85±0.03", "value": "0.70 ± 0.03", "unit": "g/L"}, {"measurement": "plasma cholesterol level reduced compared with control regime group", "setting": "plasma cholesterol; Test 2, female transgenic mice 15.5 weeks old at end of treatment, 0.01% in feed, p=0.0037", "value": 18, "unit": "%"}]}
